Measurements: patent publication US8921360B2, “Heterobicycle-substituted azolyl benzene fungicides” (priority 2009, dated 2014)

Assays:
Botrytis cinerea = assay: Test F: tomato botrytis, preventive spray on tomato seedlings; assay type: in vivo; details: Botrytis cinerea, topical, 120 h, tomato seedlings sprayed to run-off, inoculated next day, rated after 48 h + 3 days, read-out: Percentage Disease Control Test F
From the text: General protocol for preparing test suspensions for Tests A-G: the test compounds were first dissolved in acetone in an amount equal to 11% of the final volume and then suspended at the desired concentration (in ppm) in acetone and purified water (50/50 mix by volume) containing 250 ppm of the surfactant Trem® 014 (polyhydric alcohol esters). The resulting test suspensions were then used in Tests A-G. Spraying a 200 ppm test suspension to the point of run-off on the test plants was the equivalent of a rate of 800 g/ha. The test suspension was sprayed to the point of run-off on tomato seedlings. The following day the seedlings were inoculated with a spore suspension of Botrytis cinerea (the causal agent of tomato botrytis) and incubated in saturated atmosphere at 20° C. for 48 h, and then moved to a growth chamber at 27° C. for 3 additional days, after which time disease ratings were visually made. Results for Tests A-G are given in Table A. In the Table, a rating of 100 indicates 100% disease control and a rating of 0 indicates no disease control (relative to the controls). A dash (-) indicates no test results. All results are for 200 ppm except where followed by an “*”, which indicates 40 ppm.

Alternaria solani = assay: Test G: tomato early blight, preventive spray on tomato seedlings; assay type: in vivo; details: Alternaria solani, topical, 168 h, tomato seedlings sprayed to run-off, inoculated next day, rated after 48 h + 5 days, read-out: Percentage Disease Control Test G
From the text: General protocol for preparing test suspensions for Tests A-G: the test compounds were first dissolved in acetone in an amount equal to 11% of the final volume and then suspended at the desired concentration (in ppm) in acetone and purified water (50/50 mix by volume) containing 250 ppm of the surfactant Trem® 014 (polyhydric alcohol esters). The resulting test suspensions were then used in Tests A-G. Spraying a 200 ppm test suspension to the point of run-off on the test plants was the equivalent of a rate of 800 g/ha. The test suspension was sprayed to the point of run-off on tomato seedlings. The following day the seedlings were inoculated with a spore suspension of Alternaria solani (the causal agent of tomato early blight) and incubated in a saturated atmosphere at 27° C. for 48 h, and then moved to a growth chamber at 24° C. for 5 days, after which time disease ratings were visually made. Results for Tests A-G are given in Table A. In the Table, a rating of 100 indicates 100% disease control and a rating of 0 indicates no disease control (relative to the controls). A dash (-) indicates no test results. All results are for 200 ppm except where followed by an “*”, which indicates 40 ppm.

melting point [°C]	Compound	pest or weed control at 200 ppm (Botrytis cinerea) [%]	pest or weed control at 200 ppm (Alternaria solani) [%]
185 to 187	COC(=O)NCc1cc(-c2ccn(-c3ccc4c(c3)C=C(C(=O)OC)CO4)n2)ccc1Cl [Compound 23, methyl 6-[3-[4-chloro-3-[[(methoxycarbonyl)amino]methyl]phenyl]-1H-pyrazol-1-yl]-2H-1-benzopyran-3-carboxylate]	0	0
136 to 138	COC(=O)NCc1cc(-c2ccn(-c3ccc4c(c3)CC(O)CO4)n2)ccc1Cl (stereo not shown) [Compound 30, methyl N-[[2-chloro-5-[1-(3,4-dihydro-3-hydroxy-2H-1-benzopyran-6-yl)-1H-pyrazol-3-yl]phenyl]methyl]carbamate]	0	94
140 to 144	COC(=O)NCc1cc(-n2ccc(-c3ccc4c(c3)CCCO4)n2)ccc1F [Compound 11, methyl N-[[5-[3-(3,4-dihydro-2H-1-benzopyran-6-yl)-1H-pyrazol-1-yl]-2-fluorophenyl]methyl]carbamate]	0	40
134 to 138	COC(=O)NCc1cc(-c2ccn(-c3ccc4c(c3)CCCO4)n2)ccc1F [Compound 12, methyl N-[[5-[1-(3,4-dihydro-2H-1-benzopyran-6-yl)-1H-pyrazol-3-yl]-2-fluorophenyl]methyl]carbamate]	0	88
104 to 106	COC(=O)NCc1cc(-c2ccn(-c3ccc4c(c3)CC(=O)CO4)n2)ccc1Cl [Compound 29, methyl N-[[2-chloro-5-[1-(3,4-dihydro-3-oxo-2H-1-benzopyran-6-yl)-1H-pyrazol-3-yl]phenyl]methyl]carbamate]	0	17
161 to 162	COC(=O)NCc1cc(-c2ccn(-c3ccc4c(c3)CCCO4)n2)ccc1C [Compound 20, methyl N-[[5-[1-(3,4-dihydro-2H-1-benzopyran-6-yl)-1H-pyrazol-3-yl]-2-methylphenyl]methyl]carbamate]	95	90
152 to 154	COC(=O)NCc1cc(-n2ccc(-c3ccc4c(c3)CCCO4)n2)ccc1C [Compound 25, methyl N-[[5-[3-(3,4-dihydro-2H-1-benzopyran-6-yl)-1H-pyrazol-1-yl]-2-methylphenyl]methyl]carbamate]	0	0
245 to 247	COC(=O)NCc1cc(-c2ccn(-c3ccc4c(c3)C=C(C(=O)O)CO4)n2)ccc1Cl [Compound 24, 6-[3-[4-chloro-3-[[(methoxycarbonyl)amino]methyl]phenyl]-1H-pyrazol-1-yl]-2H-1-benzopyran-3-carboxylic acid]	0	0
70 to 73	COC(=O)NCc1cc(-c2ccn(-c3ccc4c(c3)CC3(CO4)OCCO3)n2)ccc1Cl [Compound 28, methyl N-[[2-chloro-5-(1-spiro[2H-1-benzopyran-3(4H), 2′-[1,3]dioxolan]-6-yl-1H-pyrazol-3-yl)phenyl]methyl]carbamate]	0	90

The next lines start with the compound.

Compound	melting point [°C]	pest or weed control at 200 ppm (Botrytis cinerea) [%]	pest or weed control at 200 ppm (Alternaria solani) [%]
CC(=O)NCc1cc(-c2ccn(-c3ccc4c(c3)CCCO4)n2)ccc1Cl [Compound 2, N-[[2-chloro-5-[1-(3,4-dihydro-2H-1-benzopyran-6-yl)-1H-pyrazol-3-yl]-phenyl]methyl]acetamide]		0	53
CNC(=O)NCc1cc(-c2ccn(-c3ccc4c(c3)CCCO4)n2)ccc1Cl [Compound 4, N-[[2-chloro-5-[1-(3,4-dihydro-2H-1-benzopyran-6-yl)-1H-pyrazol-3-yl]-phenyl]methyl]-N′-methylurea]		0	0
COC(=O)NCc1cc(-n2ccc(-c3ccc4c(c3)OCCO4)n2)ccc1Cl [Compound 7, methyl N-[[2-chloro-5-[3-(2,3-dihydro-1,4-benzodioxin-6-yl)-1H-pyrazol-1-yl]-phenyl]methyl]carbamate]		98	97
CC(=O)NCc1cc(-n2ccc(-c3ccc4c(c3)CCCO4)n2)ccc1Cl [Compound 8, N-[[2-chloro-5-[3-(3,4-dihydro-2H-1-benzopyran-6-yl)-1H-pyrazol-1-yl]phenyl]methyl]acetamide]		73	91
COC(=O)NCc1cc(-n2ccc(-c3ccc4c(c3)CCCO4)n2)ccc1Cl [Compound 5, methyl N-[[2-chloro-5-[3-(3,4-dihydro-2H-1-benzopyran-6-yl)-1H-pyrazol-1-yl]phenyl]methyl]carbamate]		98	0
O=CNCc1cc(-c2ccn(-c3ccc4c(c3)CCCO4)n2)ccc1Cl [Compound 3, N-[[2-chloro-5-[1-(3,4-dihydro-2H-1-benzopyran-6-yl)-1H-pyrazol-3-yl]-phenyl]methyl]formamide]		0	0
CNC(=O)NCc1cc(-n2ccc(-c3ccc4c(c3)CCCO4)n2)ccc1Cl [Compound 9, N-[[2-chloro-5-[3-(3,4-dihydro-2H-1-benzopyran-6-yl)-1H-pyrazol-1-yl]phenyl]methyl]-N′-methylurea]		0	9
COC(=O)NCc1cc(-n2ccc(-c3ccc4c(c3)OCO4)n2)ccc1Cl [Compound 6, methyl N-[[5-[3-(1,3-benzodioxol-5-yl)-1H-pyrazol-1-yl]-2-chlorophenyl]-methyl]carbamate]		91	95
